SMILES strings stand for the structures.

For data set [1], the system named is urinary metabolic markers. Nature of the data set: 38-person study: amino acid challenge, overnight urinary organic acid profile pre vs post challenge. The format is in vivo, human. To be noted: in some subjects. How it is done:
An initial pilot study was conducted using 3 subjects. A second study was conducted using 38 adult subjects who were chosen as having no diagnosed diseases and normal work habits. […] On two consecutive nights urine was collected for performing analysis of 46 compounds included in a profile of organic acids. On the second night, a single bolus of crystalline pure L-amino acids was consumed dissolved in water. All amino acids used were L-stereoisomers unless designated otherwise by the “D-”prefix. In the 3-person pilot, dosing included tyrosine, valine, leucine, isoleucine, histidine, and tryptophan as free-form or chloride salts at a total load of approximately 400 mg/kg body weight. For the 38-subject study, the dosing formula included a similar mixture containing alanine, valine, leucine, isoleucine, histidine, and tryptophan. Table 1 summarizes the amino acids included in the challenge formula, urinary metabolic markers affected and related nutrients or metabolic effects. The Amino acid challenge dose protocol was as follows. For 2 consecutive nights, participants collected overnight urine specimens. On the second night, before going to bed, they took approximately 400 mg/kg body weight of the challenge dose of amino acids. […]

The conditions of data set [2]: up to 15 g, human studies; cited from earlier work.

In the case of `C[C@H](N)C(=O)O` [L-alanine], the “levels of pyruvate, succinate, fumarate and malate” value in data set [1] was “increased levels”.
As to `N[C@@H](Cc1c[nH]cn1)C(=O)O` [L-histidine], the safety of administration result in data set [2] is reported as “administered safely”.

These data come from patent US20130091932A1, “Process and Method for Broad Spectrum Amino Acid Challenged Urinary Organic Acids” (priority 2011, published 2013).
